Measured values as given in ChEMBL document CHEMBL1201862, “PubChem BioAssay data set” (2004).
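Cultured in 96-well plates, cells were exposed to test compound for 48 hours across five concentrations. GI50: concentration for 50% inhibition of growth.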 Active and inactive are the calls of the source. Cut-off read from the data, not from the text of the source: active = GI50 up to about 1.1 µM and inactive = higher.

What was measured:
Assay in all cases: NCI tumour cell line growth inhibition, 48 h
SN12C = tested on: SN12C
SNB-19 = tested on: SNB-19
COLO 205 = tested on: COLO 205
K562 = tested on: K562
SNB-78 = tested on: SNB-78
NCI-H23 = tested on: NCI-H23
MOLT-4 = tested on: MOLT-4
U-251 = tested on: U-251
NCI-H226 = tested on: NCI-H226
HL-60 = tested on: HL-60
SF-268 = tested on: SF-268
A549 = tested on: A549
SK-MEL-5 = tested on: SK-MEL-5
SNB-75 = tested on: SNB-75
UACC-62 = tested on: UACC-62
HCC 2998 = tested on: HCC 2998
MDA-N = tested on: MDA-N
MDA-MB-435 = tested on: MDA-MB-435
MDA-MB-231 = tested on: MDA-MB-231
PC-3 = tested on: PC-3

Measured: GI50

CCN(CC)Cc1cc(Nc2c3ccccc3nc3c4ccccc4n(C)c23)ccc1O
inactive: SN12C 13.9 µM | SNB-19 16.7 µM | COLO 205 4.73 µM | K562 2.51 µM | SNB-78 18.6 µM | NCI-H23 15.1 µM | MOLT-4 2.77 µM | U-251 10.8 µM | NCI-H226 29.2 µM | HL-60 3.46 µM | SF-268 16.6 µM | A549 12.9 µM | SK-MEL-5 2.61 µM | SNB-75 13.6 µM | UACC-62 6.9 µM

CCCCCCCCCCCCCCCCCCOCC1(COP(=O)([O-])OCC[N+](C)(C)C)CCCO1 (stereo unspecified)
inactive: SN12C 2.2 µM | SNB-19 3.7 µM | COLO 205 1.87 µM | K562 16.4 µM | SNB-78 8.17 µM | NCI-H23 16.8 µM | MOLT-4 2.2 µM | U-251 2.33 µM | NCI-H226 5.01 µM | HL-60 2.18 µM | SF-268 5.87 µM | HCC 2998 1.89 µM | A549 7.6 µM | SK-MEL-5 14.4 µM | SNB-75 5.56 µM | UACC-62 8.75 µM

NC(=O)COC(=O)c1c(Cl)nc2sccn12
inactive: SN12C > 100 µM | SNB-19 > 100 µM | COLO 205 > 60.3 µM | K562 > 63.2 µM | SNB-78 > 100 µM | NCI-H23 > 100 µM | MOLT-4 > 100 µM | U-251 > 83 µM | NCI-H226 > 100 µM | HL-60 > 46 µM | SF-268 > 100 µM | HCC 2998 > 100 µM | A549 > 100 µM | SK-MEL-5 > 100 µM | SNB-75 > 100 µM | UACC-62 > 100 µM

O=C1NC2C(O)CCCCC2C12CCCCC2 (stereo unspecified)
inactive: SN12C > 100 µM | SNB-19 > 100 µM | COLO 205 > 100 µM | K562 > 100 µM | SNB-78 > 100 µM | NCI-H23 > 100 µM | MOLT-4 > 100 µM | U-251 > 100 µM | HL-60 > 100 µM | SF-268 > 100 µM | A549 > 100 µM | SK-MEL-5 > 100 µM | SNB-75 > 100 µM | UACC-62 > 100 µM

Cc1cc2c(=O)cc(-c3ccc(C(=O)O)cc3)oc2c(C(=O)O)c1C
inactive: SN12C > 100 µM | SNB-19 > 100 µM | COLO 205 > 100 µM | K562 > 100 µM | SNB-78 > 100 µM | NCI-H23 > 100 µM | MOLT-4 > 100 µM | U-251 > 100 µM | NCI-H226 > 100 µM | HL-60 > 100 µM | HCC 2998 > 100 µM | A549 > 100 µM | SK-MEL-5 > 100 µM | SNB-75 > 100 µM | UACC-62 > 100 µM

CCC1OCCN1C(C)C (stereo unspecified)
inactive: SN12C > 100 µM | SNB-19 > 100 µM | COLO 205 > 100 µM | K562 > 100 µM | SNB-78 > 100 µM | NCI-H23 32.9 µM | MOLT-4 > 100 µM | U-251 > 100 µM | HL-60 > 100 µM | SF-268 > 100 µM | HCC 2998 > 100 µM | A549 > 100 µM | SK-MEL-5 70.8 µM | UACC-62 59 µM

COc1ccc(Br)c(N/N=C2\CCCNC2=O)c1
inactive: SN12C > 100 µM | SNB-19 > 100 µM | COLO 205 48 µM | K562 > 100 µM | SNB-78 > 100 µM | NCI-H23 > 100 µM | MOLT-4 69 µM | U-251 86.3 µM | NCI-H226 > 100 µM | HL-60 68.5 µM | HCC 2998 > 100 µM | A549 > 100 µM | SK-MEL-5 96.6 µM | SNB-75 23.1 µM | UACC-62 > 100 µM

CCOC(=O)C1=C(NC(C)(C)C)OCC1=O
inactive: SN12C > 100 µM | SNB-19 > 100 µM | COLO 205 > 100 µM | K562 > 100 µM | SNB-78 > 100 µM | NCI-H23 92.7 µM | MOLT-4 > 100 µM | U-251 > 100 µM | NCI-H226 > 100 µM | HL-60 > 100 µM | SF-268 > 100 µM | HCC 2998 > 100 µM | A549 > 100 µM | SNB-75 > 100 µM | UACC-62 > 100 µM

C=C1C2CCCC1C1(S(C)(=O)=O)CCCCC21O (stereo unspecified)
inactive: SN12C > 100 µM | SNB-19 > 100 µM | COLO 205 > 100 µM | K562 > 100 µM | SNB-78 > 100 µM | NCI-H23 > 100 µM | MOLT-4 > 100 µM | U-251 > 100 µM | NCI-H226 > 100 µM | HCC 2998 > 100 µM | A549 > 100 µM | SK-MEL-5 > 100 µM | SNB-75 > 100 µM | UACC-62 > 100 µM

COC(=O)[C@@]12C=CC(=O)[C@H]3C[C@@H](C(C(C)C)C1)[C@]32OC (stereo partly specified)
inactive: SN12C > 100 µM | SNB-19 > 100 µM | COLO 205 > 100 µM | K562 > 100 µM | SNB-78 > 100 µM | NCI-H23 > 100 µM | MOLT-4 > 100 µM | U-251 > 100 µM | HL-60 > 100 µM | SF-268 > 100 µM | HCC 2998 > 100 µM | A549 > 100 µM | SK-MEL-5 > 100 µM | SNB-75 > 100 µM | UACC-62 > 100 µM

N#Cc1ccccc1Nc1ccccc1S
inactive: SN12C 31 µM | SNB-19 22.5 µM | COLO 205 > 100 µM | K562 26 µM | SNB-78 37.6 µM | NCI-H23 37.8 µM | MOLT-4 5.4 µM | U-251 > 10 µM | NCI-H226 22.4 µM | HL-60 25.3 µM | SF-268 31.3 µM | A549 30.7 µM | SK-MEL-5 17.9 µM | UACC-62 19.1 µM

CCC(CC)C(=O)OC[n+]1cccc(-c2c(COC(=O)NC(C)C)c(COC(=O)NC(C)C)c3n2CCC3)c1
inactive: SN12C 58.2 µM | SNB-19 > 100 µM | COLO 205 > 100 µM | MDA-N > 100 µM | MDA-MB-435 > 100 µM | K562 97.5 µM | NCI-H23 61.1 µM | MOLT-4 33.3 µM | U-251 > 100 µM | MDA-MB-231 > 100 µM | NCI-H226 > 100 µM | HL-60 33.1 µM | PC-3 > 100 µM | SF-268 62.8 µM | HCC 2998 > 100 µM | A549 > 100 µM | SK-MEL-5 > 100 µM | SNB-75 > 100 µM | UACC-62 46.6 µM

CC1(C)SCc2nc3ncccc3n21
inactive: SN12C > 100 µM | COLO 205 > 100 µM | K562 > 100 µM | SNB-78 > 100 µM | NCI-H23 > 100 µM | MOLT-4 > 100 µM | U-251 > 100 µM | NCI-H226 > 100 µM | HL-60 > 100 µM | SF-268 > 100 µM | HCC 2998 > 100 µM | A549 > 100 µM | SK-MEL-5 > 100 µM | SNB-75 > 100 µM | UACC-62 > 100 µM

O=C1C=C2C(=NC34CCCCC3C(c3ccccc3)C3=C(c5ccccc5CC3)N24)c2ccccc21 (stereo unspecified)
inactive: SN12C > 10 µM | SNB-19 > 10 µM | COLO 205 > 10 µM | MDA-N > 10 µM | MDA-MB-435 > 10 µM | K562 > 10 µM | NCI-H23 > 10 µM | MOLT-4 > 10 µM | U-251 > 10 µM | MDA-MB-231 > 10 µM | NCI-H226 > 10 µM | HL-60 > 10 µM | PC-3 > 10 µM | SF-268 > 10 µM | HCC 2998 > 10 µM | A549 > 10 µM | SK-MEL-5 > 10 µM | SNB-75 8.95 µM | UACC-62 > 10 µM

Cc1ccc(C(=O)NC2CCCCC2)cc1/N=N/N(C)C
inactive: SN12C > 100 µM | SNB-19 > 100 µM | SNB-78 > 100 µM | NCI-H23 > 100 µM | U-251 > 100 µM | SF-268 44.9 µM | HCC 2998 > 100 µM | A549 > 100 µM | SK-MEL-5 > 100 µM | UACC-62 > 100 µM

CCOC(OCC)C(CC)[Se]c1ccccc1 (stereo unspecified)
inactive: SN12C 41 µM | SNB-19 > 100 µM | COLO 205 39.8 µM | K562 > 100 µM | SNB-78 64.3 µM | NCI-H23 7.13 µM | MOLT-4 37.2 µM | U-251 2.25 µM | NCI-H226 27.3 µM | HL-60 2.42 µM | SF-268 72.6 µM | HCC 2998 35.2 µM | A549 > 100 µM | SK-MEL-5 > 100 µM | SNB-75 35.3 µM | UACC-62 > 100 µM

COc1cc(Br)c(/C=N\c2cccc3ccc(OS(=O)(=O)c4cccc([N+](=O)[O-])c4)cc23)cc1OC
inactive: SN12C 33.9 µM | SNB-19 60.1 µM | COLO 205 66.8 µM | K562 21.1 µM | SNB-78 12 µM | NCI-H23 12.5 µM | MOLT-4 8.18 µM | U-251 19.1 µM | NCI-H226 20.4 µM | SF-268 19.4 µM | HCC 2998 > 100 µM | A549 52.6 µM | SK-MEL-5 27.4 µM | UACC-62 23.1 µM

O=c1[nH]ccc(CNC23CC4CC(CC(C4)C2)C3)c1O
inactive: SN12C 45.8 µM | SNB-19 > 100 µM | COLO 205 > 100 µM | K562 88.3 µM | SNB-78 > 100 µM | NCI-H23 > 100 µM | MOLT-4 55.7 µM | U-251 > 100 µM | NCI-H226 > 100 µM | HL-60 41.3 µM | HCC 2998 > 100 µM | A549 > 100 µM | SK-MEL-5 > 100 µM | SNB-75 > 100 µM | UACC-62 > 100 µM
